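Where inhibition never reached the appropriate level, the endpoint shown equals the highest concentration tested. Otherwise, values were interpolated linearly from a five-concentration, 48-hour dose response in 96-well plates. Abbreviation: GI50, concentration required for 50% inhibition of growth. TGI is the concentration that stops growth completely.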
How the values were obtained:
Assay in all cases: NCI anticancer screen, dose series, 48 h
CCRF-CEM leukemia = tested on: CCRF-CEM leukemia
HS 578T breast = tested on: HS 578T breast
EKVX NSCLC = tested on: EKVX NSCLC
SK-MEL-2 melanoma = tested on: SK-MEL-2 melanoma
HOP-92 NSCLC = tested on: HOP-92 NSCLC
SK-OV-3 ovarian = tested on: SK-OV-3 ovarian
RPMI-8226 leukemia = tested on: RPMI-8226 leukemia
U251 CNS = tested on: U251 CNS
OVCAR-3 ovarian = tested on: OVCAR-3 ovarian
DU-145 prostate = tested on: DU-145 prostate
MCF7 breast = tested on: MCF7 breast
HCT-15 colon = tested on: HCT-15 colon
OVCAR-4 ovarian = tested on: OVCAR-4 ovarian
OVCAR-8 ovarian = tested on: OVCAR-8 ovarian
CAKI-1 renal = tested on: CAKI-1 renal
NCI-H23 lung = tested on: NCI-H23 lung
SK-MEL-5 melanoma = tested on: SK-MEL-5 melanoma
NCI-H460 lung = tested on: NCI-H460 lung
NCI-H522 lung = tested on: NCI-H522 lung
TK-10 renal = tested on: TK-10 renal
NCI-H226 lung = tested on: NCI-H226 lung
HL-60(TB) leukemia = tested on: HL-60(TB) leukemia
M14 melanoma = tested on: M14 melanoma
IGROV1 ovarian = tested on: IGROV1 ovarian
A549 NSCLC = tested on: A549 NSCLC
A498 renal = tested on: A498 renal
786-0 renal = tested on: 786-0 renal
UO-31 renal = tested on: UO-31 renal

Question: With CC(C)n1c(=O)n(C)c2cnc3cc(F)c(-c4ccc(OCCCN5CCCCC5)nc4)cc3c21 as the compound, how does the GI50 (CCRF-CEM leukemia) read?
Answer: The GI50 was 9.9 µM.

Question: What about the TGI (CCRF-CEM leukemia) of the same compound?
Answer: Its TGI is 31.8 µM.

Question: And the GI50 (HS 578T breast)?
Answer: Its GI50 is 3.33 µM.

Question: And the TGI (HS 578T breast)?
Answer: The TGI was 18.1 µM.

Question: And the GI50 (EKVX NSCLC)?
Answer: The GI50 was 8.19 µM.

Question: And the TGI (EKVX NSCLC)?
Answer: Its TGI is 48.9 µM.

Question: What about the GI50 (SK-MEL-2 melanoma) of the same compound?
Answer: The GI50 was 14.4 µM.

Question: And the TGI (SK-MEL-2 melanoma)?
Answer: Its TGI is 30.2 µM.

Question: And the GI50 (HOP-92 NSCLC)?
Answer: Its GI50 is 1.2 µM.

Question: What about the TGI (HOP-92 NSCLC) of the same compound?
Answer: Its TGI is 9.36 µM.

Question: And the GI50 (SK-OV-3 ovarian)?
Answer: The GI50 was 10.8 µM.

Question: And the TGI (SK-OV-3 ovarian)?
Answer: Its TGI is 73.8 µM.

Question: And the GI50 (RPMI-8226 leukemia)?
Answer: The GI50 was 3.22 µM.

Question: What about the TGI (RPMI-8226 leukemia) of the same compound?
Answer: Its TGI is 14.6 µM.

Question: What about the GI50 (U251 CNS) of the same compound?
Answer: Its GI50 is 13.5 µM.

Question: And the TGI (U251 CNS)?
Answer: The TGI was 37.6 µM.

Question: What about the GI50 (OVCAR-3 ovarian) of the same compound?
Answer: The GI50 was 13.7 µM.

Question: And the TGI (OVCAR-3 ovarian)?
Answer: Its TGI is 49.5 µM.

Question: What about the GI50 (DU-145 prostate) of the same compound?
Answer: Its GI50 is 17.7 µM.

Question: What about the TGI (DU-145 prostate) of the same compound?
Answer: The TGI was over 100 µM.

Question: What about the GI50 (MCF7 breast) of the same compound?
Answer: Its GI50 is 7.46 µM.

Question: What about the TGI (MCF7 breast) of the same compound?
Answer: Its TGI is 21.6 µM.

Question: What about the GI50 (HCT-15 colon) of the same compound?
Answer: Its GI50 is 11.1 µM.

Question: And the TGI (HCT-15 colon)?
Answer: Its TGI is 31.5 µM.

Question: And the GI50 (OVCAR-4 ovarian)?
Answer: The GI50 was 9.08 µM.

Question: And the TGI (OVCAR-4 ovarian)?
Answer: The TGI was 56.5 µM.

Question: What about the GI50 (OVCAR-8 ovarian) of the same compound?
Answer: The GI50 was 14.9 µM.

Question: And the TGI (OVCAR-8 ovarian)?
Answer: The TGI was over 100 µM.

Question: And the GI50 (CAKI-1 renal)?
Answer: Its GI50 is 22.9 µM.

Question: What about the TGI (CAKI-1 renal) of the same compound?
Answer: Its TGI is over 100 µM.

Question: What about the GI50 (NCI-H23 lung) of the same compound?
Answer: The GI50 was 16.5 µM.

Question: What about the TGI (NCI-H23 lung) of the same compound?
Answer: The TGI was over 100 µM.

Question: And the GI50 (SK-MEL-5 melanoma)?
Answer: The GI50 was 6.41 µM.

Question: And the TGI (SK-MEL-5 melanoma)?
Answer: Its TGI is 19.1 µM.

Question: And the GI50 (NCI-H460 lung)?
Answer: Its GI50 is 11.3 µM.

Question: And the TGI (NCI-H460 lung)?
Answer: Its TGI is 29.4 µM.

Question: What about the GI50 (NCI-H522 lung) of the same compound?
Answer: The GI50 was 18.6 µM.

Question: What about the TGI (NCI-H522 lung) of the same compound?
Answer: The TGI was 49.6 µM.

Question: What about the GI50 (TK-10 renal) of the same compound?
Answer: Its GI50 is 11.3 µM.

Question: And the TGI (TK-10 renal)?
Answer: The TGI was 45.4 µM.

Question: What about the GI50 (NCI-H226 lung) of the same compound?
Answer: The GI50 was 4.99 µM.

Question: And the TGI (NCI-H226 lung)?
Answer: The TGI was 24.4 µM.

Question: What about the GI50 (HL-60(TB) leukemia) of the same compound?
Answer: The GI50 was 12.7 µM.

Question: What about the TGI (HL-60(TB) leukemia) of the same compound?
Answer: Its TGI is 38.2 µM.

Question: What about the GI50 (M14 melanoma) of the same compound?
Answer: Its GI50 is 14.6 µM.

Question: And the TGI (M14 melanoma)?
Answer: The TGI was 31.6 µM.

Question: And the GI50 (IGROV1 ovarian)?
Answer: The GI50 was 8.18 µM.

Question: What about the TGI (IGROV1 ovarian) of the same compound?
Answer: The TGI was 41.9 µM.

Question: And the GI50 (A549 NSCLC)?
Answer: The GI50 was 16.3 µM.

Question: What about the TGI (A549 NSCLC) of the same compound?
Answer: The TGI was 63.9 µM.

Question: And the GI50 (A498 renal)?
Answer: Its GI50 is 3.78 µM.

Question: And the TGI (A498 renal)?
Answer: Its TGI is 14 µM.

Question: What about the GI50 (786-0 renal) of the same compound?
Answer: The GI50 was 12.9 µM.

Question: What about the TGI (786-0 renal) of the same compound?
Answer: The TGI was 37.9 µM.

Question: What about the GI50 (UO-31 renal) of the same compound?
Answer: Its GI50 is 3.74 µM.

Question: And the TGI (UO-31 renal)?
Answer: The TGI was 16.2 µM.

Source: PubChem BioAssay (NCI)
